ChEMBL document CHEMBL1268972, “Solid-phase synthesis and screening of N-acylated polyamine (NAPA) combinatorial libraries for protein binding” (Bioorg Med Chem Lett, 2010)

Test: Binding to HIV1 Vpr by isothermal titration calorimetry
Design: species or system Human immunodeficiency virus

With C[C@H](CC(N)=O)N(C[C@@H](CCCCN)N(C[C@@H](CCCCN)N(C[C@@H](Cc1ccc(O)cc1)NC(=O)Cc1ccc([N+](=O)[O-])cc1)C(=O)CCc1ccccc1)C(=O)CCc1ccccc1)C(=O)CCc1ccccc1 the Kd was 25 µM.
